Measured values reported in patent US7605135B2 (priority 2003, dated 2009).
Where two headings read alike, the source gives them in different places.

Columns and labels:
[1] = human, in vivo; cited from earlier work
SARS-CoV = settings: fRhK4 cell line; for EC50 (μg/ml) at 48 hrs / EC50 (μg/ml) at 72 hrs: 10 strains of SARS-CoV, inhibition of cytopathic effect to 50% of control
HIV-1 = settings: cited from earlier work
[2] = in vivo, cited from earlier work

baicalin
Serum level (after intravenous administration) Cmax [1]: 74
CC50 (fRhK4 cell line): >100 µg/mL
EC50 (μg/ml) at 48 hrs (SARS-CoV): 12.5 to 25 µg/mL
EC50 (μg/ml) at 48 hrs (SARS-CoV; listed as baicalin): 12.5 to 25 µg/mL
EC50 (μg/ml) at 72 hrs (SARS-CoV): 25 to 50 µg/mL
EC50 (μg/ml) at 72 hrs (SARS-CoV; listed as baicalin): 25 to 50 µg/mL
SI = CC50/EC50 at 48 hrs (SARS-CoV; selectivity index): >8
Antiviral effect (HIV-1): Inhibition of HIV-1 [Kitamura K et al., “Baicalin: an inhibitor of HIV-1
Serum level (after oral administration) Cmax ([2]; human, po): Cmax = 60 ng/mL (189.8 mg/person, in human). The amount (i.e., 189.8 mg/
Half life (in humans) ([2]; human): ~3 hrs in humans Muto R et al., “The chemical structure of new substance
Serum concentration after oral dose ([2]; po): 470 ng/mL
